Reference: patent US4146624A, “Method of treating viruses with bis-basic ketones of dibenzofuran” (Richardson-Merrell Inc., priority 1970, dated 1979)
Structures can show the parent of a compound that is named as a salt.

Test system: Encephalomyocarditis
Experiment: in vivo antiviral study, mice challenged subcutaneously with encephalomyocarditis virus
Details: observation 9 days
Experimental: Examples 25 to 36 illustrate in vivo antiviral studies with compounds, also referred to as active ingredients, of this invention. In each of the examples the compounds were antivirally active. […] The dosage levels of the compounds used in the examples were within the range of 10 to 250 mg. per kg. of animal body weight for each time the compound was administered.
Table A lists the active ingredient which was administered in each of the examples. Although it is believed that the headings in the examples are self-explanatory, some of the headings are explained as follows. The "challenge," that is, the inoculation with a virus used is generally fatal to all the untreated, that is, control animals in the experiment. "Time of death" refers to the average time of death for the untreated animals. The "Treatment" was prophylactic or therapeutic or both. The term "volume" refers to the volume of composition administered per dose which contained the active ingredient dissolved in sterile water which also contained 0.15% of hydroxyethylcellulose.

[1] = prophylactic, 250 mg/kg oral, 22 hrs. pre-challenge, challenge 6 LD50
[2] = Proph. & Therap., 50 mg/kg subcutaneous, 28,22,2 hrs. pre- and 2 hrs. post-challenge, challenge 10 LD50

## O=C(CCCN1CCCCC1)c1ccc2oc3ccc(C(=O)CCCN4CCCCC4)cc3c2c1 [Example 25, 2,8-bis-(4-piperidinobutyryl)dibenzofuran]
prophylactic, 50 mg/kg subcutaneous, 28,22,2 hrs. pre-challenge, challenge 6 LD50
  antiviral activity: Yes
[1]
  antiviral activity: Yes

## O=C(CN1CCCCC1)c1ccc2oc3ccc(C(=O)CN4CCCCC4)cc3c2c1 [Example 31, 2,8-bis-(piperidinoacetyl)dibenzofuran]
Proph. & Therap., 250 mg/kg subcutaneous, 28,22,2 hrs. pre- and 2 hrs. post-challenge, challenge 32 LD50
  antiviral activity: Yes
prophylactic, 250 mg/kg oral, 22 hrs. pre-challenge, challenge 32 LD50
  antiviral activity: Yes

## CN(C)CC(=O)c1ccc2oc3ccc(C(=O)CN(C)C)cc3c2c1.Cl.Cl.O.O [Example 35, 2,8-bis-[2-(dimethylamino)acetyl]dibenzofuran dihydrochloride dihydrate]
Proph. & Therap., 50 mg/kg oral, 28,22,2 hrs. pre- and 2 hrs. post-challenge, challenge 10 LD50
  antiviral activity: Yes
[2]
  antiviral activity: Yes

## CC1CCN(CCCC(=O)c2ccc3oc4ccc(C(=O)CCCN5CCC(C)CC5)cc4c3c2)CC1 [Example 27, 2,8-bis-[4-(4-methylpiperidino)butyryl]dibenzofuran]
Proph. & Therap., 10 mg/kg subcutaneous, 28,22,2 hrs. pre- and 2 hrs. post-challenge, challenge 6 LD50
  antiviral activity: Yes
[1]
  antiviral activity: Yes

## O=C(CCCN1CCC(Cc2ccccc2)CC1)c1ccc2oc3ccc(C(=O)CCCN4CCC(Cc5ccccc5)CC4)cc3c2c1 [Example 29, 2,8-bis-[4-(4-benzylpiperidino)butyryl]dibenzofuran]
Proph. & Therap., 10 mg/kg subcutaneous, 28,22,2 hrs. pre- and 2 hrs. post-challenge, challenge 18 LD50
  antiviral activity: Yes

## O=C(CCCN1CCOCC1)c1ccc2oc3ccc(C(=O)CCCN4CCOCC4)cc3c2c1 [Example 30, 2,8-bis-(4-morpholinobutyryl)dibenzofuran]
[2]
  antiviral activity: Yes

## CCN(CC)CC(=O)c1ccc2oc3ccc(C(=O)CN(CC)CC)cc3c2c1 [Example 33, 2,8-bis-[2-(diethylamino)acetyl]dibenzofuran dihydrochloride hemihydrate]
Proph. & Therap., 50 mg/kg subcutaneous, 28,22,2 hrs. pre- and 2 hrs. post-challenge, challenge 12 LD50
  antiviral activity: Yes
prophylactic, 250 mg/kg oral, 22 hrs. pre-challenge, challenge 12 LD50
  antiviral activity: Yes
